Test system: isolated rodent brain-derived mitochondria
Conditions: under energized and de-energized conditions; comparable to the effects of cyclosporine A
Excerpt: Spinal cord injury model (in vivo) • Adult Lewis rats are injured microsurgically by transecting the dorsal half of the spinal cord bilaterally at the level of the eighth thoracic vertebra. Laminectomy, anesthesia and surgery are described in Schnell and Schwab, Eur J Neurosci, Vol. 5, pp. 1156-1171 (1993). […] Tamura et al., J Cereb Blood Flow Metabol, Vol. 1, pp. 53-60 (1981); and Sauter and Rudin, Stroke, Vol. 17, pp. 1228-1234 (1986)]. • 3. Inhibition of mitochondrial permeability transition in isolated rodent brain-derived mitochondria and prevention of cell death in an in vitro model of ischemic brain damage, e.g. as described in Rytter et al., JCBF, Vol. 23, pp. 23-33.

Row | Substance | inhibition of calcium-induced mitochondrial swelling
1 | [Melle]^4-Ciclosporin | inhibitors of calcium-induced mitochondrial swelling
2 | [γ-hydroxy-MeLeu]^4-Ciclosporin | inhibitors of calcium-induced mitochondrial swelling

Reference: patent US20080194470A1, “Nim811 In Cerebral Ischemia and Brain and Spinal Cord Injury” (Novartis AG, priority 2004, published 2008)
